From patent publication US20240287138A1, “CYCLIC PEPTIDES FOR INHIBITING TNF RECEPTOR 1 ACTIVITY” (Merck Sharp & Dohme LLC, priority 2023, published 2024)
Numbered stars: 1 amine (or outer) side, 2 acyl side, 3 side chain; on linkers, the order of the positions; unused ones are H or OH. Square brackets hold non-standard residues; d marks the D form. Peptide text beside a SMILES is read from it. Trp(βS-Me,7-OMe) = COc1cccc2c([C@H](C)[C@H](N)C(=O)O)c[nH]c12; Trp(7-CN) = N#Cc1cccc2c(C[C@H](N)C(=O)O)c[nH]c12; Phe(4-CONH2) = NC(=O)c1ccc(C[C@H](N)C(=O)O)cc1; Phe(4-COOH) = N[C@@H](Cc1ccc(C(=O)O)cc1)C(=O)O; Pip(5R-OH) = O=C(O)[C@@H]1CC[C@@H](O)CN1; X1 = O=C([C@@H]1CC[C@H](N[*:1])C1)[*:2]; 4Pal = N[C@@H](Cc1ccncc1)C(=O)O; dHyp = O=C(O)[C@H]1C[C@H](O)CN1; hSer = N[C@@H](CCO)C(=O)O; αMeS = C[C@](N)(CO)C(=O)O; Sar = CNCC(=O)O

Experiments:
[1] = target: T1, human TNFR1 extracellular domain (ECD) protein (Homo sapiens, UniProt P19438); assay: SPR binding affinity to captured human TNFR1 ECD
T1 construct: HRV 3C protease cleavage site (C); 6His (C, cleaved yes); made in house; host or cells: Sf21 insect cells (baculovirus), secreted
T1 sequence (P19438 30-211): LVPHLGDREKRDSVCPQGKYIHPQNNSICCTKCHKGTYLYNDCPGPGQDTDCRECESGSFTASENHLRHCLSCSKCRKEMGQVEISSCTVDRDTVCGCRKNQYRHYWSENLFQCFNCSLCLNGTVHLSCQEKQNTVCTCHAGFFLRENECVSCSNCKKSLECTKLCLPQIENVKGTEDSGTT
Procedure, shortened: (§1)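 Peptides are tested against captured biotin-tagged human TNFR1 ECD, with parallel TNFR2 ECD binding to check selectivity. Buffer: 10 mM HEPES pH 7.4, 150 mM NaCl, 3 mM EDTA, 0.05% P20, 2% DMSO.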

[2] = target: T2, human TNFR2 ECD protein (Homo sapiens, UniProt P20333); assay: SPR off-target binding (selectivity) to human TNFR2 ECD
T2 construct: HRV 3C protease cleavage site (C); 6His (C, cleaved yes); made in house; host or cells: Sf21 insect cells (baculovirus), secreted
T2 sequence (P20333 23-257): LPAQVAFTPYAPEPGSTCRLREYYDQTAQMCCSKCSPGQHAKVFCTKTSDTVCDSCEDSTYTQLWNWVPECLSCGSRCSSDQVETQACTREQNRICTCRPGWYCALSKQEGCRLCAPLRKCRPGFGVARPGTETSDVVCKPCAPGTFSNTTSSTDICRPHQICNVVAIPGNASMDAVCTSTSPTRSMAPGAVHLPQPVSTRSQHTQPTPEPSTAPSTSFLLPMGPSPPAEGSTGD
Procedure, shortened: as §1

[3] = target: T3, human soluble TNFR1 (sTNFR1) (Homo sapiens, UniProt P19438); assay: Human sTNFR1-peptide displacement assay (LanthaScreen Eu TR-FRET binding assay)
T3 construct: made in house; host or cells: Sf21 (baculovirus)
T3 sequence (P19438 with tags, fused parts or gaps): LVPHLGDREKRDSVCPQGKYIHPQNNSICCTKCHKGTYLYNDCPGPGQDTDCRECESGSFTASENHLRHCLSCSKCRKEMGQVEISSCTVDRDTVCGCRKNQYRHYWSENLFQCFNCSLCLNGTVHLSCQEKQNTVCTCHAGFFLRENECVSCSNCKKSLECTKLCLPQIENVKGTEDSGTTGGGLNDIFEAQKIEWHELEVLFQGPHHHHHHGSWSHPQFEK
Procedure, shortened: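 Readout is the 665/615 nm TR-FRET ratio (Eu anti-His donor, streptavidin-Alexa647 acceptor), normalized to DMSO and saturating displacer, fit by Morrison-based five-parameter logistic for Kd^app. His-tagged sTNFR1 (1-211) prebound to 100 nM biotinylated peptide SEQ ID NO.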

Q: What does the source list for `COCC[C@@H]1NC(=O)[C@@H]2CC[C@@H](C2)NC(=O)[C@H]([C@@H](C)c2c[nH]c3c(OC)cccc23)NC(=O)CN(C)C(=O)[C@H](Cc2ccc(C(N)=O)cc2)NC(=O)[C@H](Cc2ccc(C(N)=O)cc2)NC(=O)[C@](C)(CO)NC(=O)[C@H](Cc2c[nH]c3c(C#N)cccc23)NC(=O)[C@H](Cc2ccc(C(=O)O)cc2)NC(=O)[C@H](CC(N)=O)NC(=O)[C@H]2C[C@H](O)CN2C(=O)[C@H](Cc2c[nH]c3ccccc23)NC(=O)[C@@H]2CC[C@@H](O)CN2C(=O)[C@H](Cc2ccncc2)NC1=O` [SEQ ID NO. 194] (cyclo([4Pal][Pip(5R-OH)]W[dHyp]N[Phe(4-COOH)][Trp(7-CN)][αMeS][Phe(4-CONH2)][Phe(4-CONH2)][Sar][Trp(βS-Me,7-OMe)][X1][hSer](Me)))?
A: Kd [1]: 0.04 nM; Kd [2]: > 1000 nM; Kd [3]: 0.05 nM
